Data published in ChEMBL document CHEMBL5678818, “Discovery of potent SOS1 inhibitors that block RAS activation via disruption of the RAS-SOS1 interaction” (Proc Natl Acad Sci U S A, 2019).

Assays:
[1] = target: Serine/threonine-protein kinase/endoribonuclease IRE1 (Homo sapiens) (UniProt O75460); test: Inhibition of ERN1 (unknown origin) assessed as residual activity at 1000 nM by KINOMEscan analysis relative to control
[2] = target: Calcium-dependent protein kinase 1 (Plasmodium falciparum) (UniProt P62344); test: Inhibition of Plasmodium falciparum CDPK1 assessed as residual activity at 1000 nM by KINOMEscan analysis relative to control
[3] = target: T1, NUAK family SNF1-like kinase 2 (Homo sapiens) (UniProt Q9H093); test: Inhibition of SNARK (unknown origin) assessed as residual activity at 1000 nM by KINOMEscan analysis relative to control
T1 sequence (whole entry): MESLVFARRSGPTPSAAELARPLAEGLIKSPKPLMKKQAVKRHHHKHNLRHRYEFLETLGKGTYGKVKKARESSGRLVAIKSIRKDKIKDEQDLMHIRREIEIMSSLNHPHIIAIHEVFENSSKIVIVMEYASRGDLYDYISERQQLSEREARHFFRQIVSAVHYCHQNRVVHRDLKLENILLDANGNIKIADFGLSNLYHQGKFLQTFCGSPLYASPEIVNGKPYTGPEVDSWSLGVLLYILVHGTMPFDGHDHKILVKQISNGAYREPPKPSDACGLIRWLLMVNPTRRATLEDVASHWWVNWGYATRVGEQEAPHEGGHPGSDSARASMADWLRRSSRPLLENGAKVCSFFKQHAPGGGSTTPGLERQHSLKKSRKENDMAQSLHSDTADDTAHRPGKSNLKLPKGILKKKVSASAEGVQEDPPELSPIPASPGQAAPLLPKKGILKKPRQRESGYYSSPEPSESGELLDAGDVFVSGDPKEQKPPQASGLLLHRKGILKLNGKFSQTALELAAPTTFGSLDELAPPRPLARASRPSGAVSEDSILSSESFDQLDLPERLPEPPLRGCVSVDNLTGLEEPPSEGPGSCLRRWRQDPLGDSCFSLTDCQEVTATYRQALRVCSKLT

[4] = target: Tyrosine-protein kinase Yes (Homo sapiens) (UniProt P07947); test: Inhibition of YES (unknown origin) assessed as residual activity at 1000 nM by KINOMEscan analysis relative to control
[5] = target: Protein-tyrosine kinase 2-beta (Homo sapiens) (UniProt Q14289); test: Inhibition of PYK2 (unknown origin) assessed as residual activity at 1000 nM by KINOMEscan analysis relative to control
[6] = target: Serine/threonine-protein kinase 32B (Homo sapiens) (UniProt Q9NY57); test: Inhibition of YANK2 (unknown origin) assessed as residual activity at 1000 nM by KINOMEscan analysis relative to control
[7] = target: Cyclin-dependent kinase 2 homolog (Plasmodium falciparum (isolate K1 / Thailand)) (UniProt Q07785); test: Inhibition of Plasmodium falciparum PK5 assessed as residual activity at 1000 nM by KINOMEscan analysis relative to control
[8] = target: MAP kinase-interacting serine/threonine-protein kinase 1 (Homo sapiens) (UniProt Q9BUB5); test: Inhibition of MKNK1 (unknown origin) assessed as residual activity at 1000 nM by KINOMEscan analysis relative to control
[9] = target: T2, TGF-beta receptor type-1 (Homo sapiens) (UniProt P36897); test: Inhibition of TGFBR1 (unknown origin) assessed as residual activity at 1000 nM by KINOMEscan analysis relative to control
T2 sequence (whole entry): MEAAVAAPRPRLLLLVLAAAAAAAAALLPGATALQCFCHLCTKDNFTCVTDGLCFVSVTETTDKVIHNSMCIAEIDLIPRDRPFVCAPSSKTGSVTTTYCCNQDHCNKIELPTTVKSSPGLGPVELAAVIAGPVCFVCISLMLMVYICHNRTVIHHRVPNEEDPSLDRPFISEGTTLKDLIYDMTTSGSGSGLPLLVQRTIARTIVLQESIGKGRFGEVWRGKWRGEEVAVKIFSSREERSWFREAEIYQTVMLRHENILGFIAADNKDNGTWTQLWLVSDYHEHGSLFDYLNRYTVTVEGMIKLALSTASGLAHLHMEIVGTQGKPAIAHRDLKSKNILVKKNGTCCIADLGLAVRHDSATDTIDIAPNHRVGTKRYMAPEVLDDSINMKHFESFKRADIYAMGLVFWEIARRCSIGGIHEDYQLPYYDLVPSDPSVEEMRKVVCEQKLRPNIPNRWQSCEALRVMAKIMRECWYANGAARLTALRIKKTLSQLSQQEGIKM

[10] = test system: Tyrosine-protein kinase ABL1 (Homo sapiens), P00519 [F317I]; test: Inhibition of nonphosphorylated ABL1 F317I mutant (unknown origin) assessed as residual activity at 1000 nM by KINOMEscan analysis relative to control
[11] = target: MAP kinase-interacting serine/threonine-protein kinase 2 (Homo sapiens) (UniProt Q9HBH9); test: Inhibition of MKNK2 (unknown origin) assessed as residual activity at 1000 nM by KINOMEscan analysis relative to control
[12] = target: Tyrosine-protein kinase JAK2 (Homo sapiens) (UniProt O60674); test: Inhibition of JAK2 JH1 catalytic domain (unknown origin) assessed as residual activity at 1000 nM by KINOMEscan analysis relative to control
[13] = target: T3, Cytoplasmic tyrosine-protein kinase BMX (Homo sapiens) (UniProt P51813); test: Inhibition of BMX (unknown origin) assessed as residual activity at 1000 nM by KINOMEscan analysis relative to control
T3 sequence (whole entry): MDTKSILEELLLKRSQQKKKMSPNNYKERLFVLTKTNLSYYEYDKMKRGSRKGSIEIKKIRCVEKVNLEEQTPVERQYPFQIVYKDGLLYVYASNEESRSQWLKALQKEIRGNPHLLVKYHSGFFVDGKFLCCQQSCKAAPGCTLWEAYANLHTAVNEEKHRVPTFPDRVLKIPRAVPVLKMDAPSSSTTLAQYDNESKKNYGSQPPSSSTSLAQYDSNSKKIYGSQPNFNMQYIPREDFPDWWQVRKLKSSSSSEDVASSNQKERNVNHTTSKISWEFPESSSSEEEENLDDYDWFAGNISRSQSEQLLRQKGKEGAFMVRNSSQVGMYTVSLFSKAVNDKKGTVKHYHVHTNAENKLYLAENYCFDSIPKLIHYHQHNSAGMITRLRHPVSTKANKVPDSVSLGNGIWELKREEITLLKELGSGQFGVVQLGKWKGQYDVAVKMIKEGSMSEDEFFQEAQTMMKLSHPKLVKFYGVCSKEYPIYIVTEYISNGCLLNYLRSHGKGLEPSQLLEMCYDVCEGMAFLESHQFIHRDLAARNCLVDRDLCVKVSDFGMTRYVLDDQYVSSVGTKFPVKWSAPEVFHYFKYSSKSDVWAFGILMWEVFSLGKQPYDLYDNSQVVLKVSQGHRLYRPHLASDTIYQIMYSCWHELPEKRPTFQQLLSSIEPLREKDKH

[14] = target: Serine/threonine-protein kinase 10 (Homo sapiens) (UniProt O94804); test: Inhibition of LOK (unknown origin) assessed as residual activity at 1000 nM by KINOMEscan analysis relative to control

Sequence of Serine/threonine-protein kinase/endoribonuclease IRE1 (Homo sapiens) (O75460 19-977 limits assumed): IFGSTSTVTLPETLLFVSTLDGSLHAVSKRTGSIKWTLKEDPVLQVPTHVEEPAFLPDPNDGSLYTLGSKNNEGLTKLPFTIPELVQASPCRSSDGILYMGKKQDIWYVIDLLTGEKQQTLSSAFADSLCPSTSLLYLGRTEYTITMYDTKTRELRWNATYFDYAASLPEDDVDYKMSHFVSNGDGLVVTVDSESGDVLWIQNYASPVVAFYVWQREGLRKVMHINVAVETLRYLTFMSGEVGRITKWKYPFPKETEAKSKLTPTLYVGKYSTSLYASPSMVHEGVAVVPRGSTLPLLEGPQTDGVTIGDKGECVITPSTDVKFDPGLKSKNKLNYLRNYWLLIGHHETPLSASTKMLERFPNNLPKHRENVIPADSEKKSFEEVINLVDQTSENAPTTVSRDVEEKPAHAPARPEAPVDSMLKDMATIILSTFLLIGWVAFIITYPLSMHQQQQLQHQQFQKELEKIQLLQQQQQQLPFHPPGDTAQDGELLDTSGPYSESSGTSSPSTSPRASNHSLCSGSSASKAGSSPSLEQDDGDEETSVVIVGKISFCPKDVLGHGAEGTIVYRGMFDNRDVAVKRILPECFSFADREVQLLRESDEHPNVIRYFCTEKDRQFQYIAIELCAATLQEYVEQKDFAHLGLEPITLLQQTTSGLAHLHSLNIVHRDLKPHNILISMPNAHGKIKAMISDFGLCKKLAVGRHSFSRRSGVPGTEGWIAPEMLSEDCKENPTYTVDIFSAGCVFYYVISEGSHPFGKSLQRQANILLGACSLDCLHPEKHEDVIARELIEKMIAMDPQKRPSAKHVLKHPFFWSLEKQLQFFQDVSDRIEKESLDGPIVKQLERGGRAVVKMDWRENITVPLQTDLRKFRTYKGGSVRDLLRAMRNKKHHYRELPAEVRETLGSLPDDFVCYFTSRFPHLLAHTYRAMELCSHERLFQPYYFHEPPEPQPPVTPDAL
Sequence of Calcium-dependent protein kinase 1 (Plasmodium falciparum) (P62344 2-524 limits assumed): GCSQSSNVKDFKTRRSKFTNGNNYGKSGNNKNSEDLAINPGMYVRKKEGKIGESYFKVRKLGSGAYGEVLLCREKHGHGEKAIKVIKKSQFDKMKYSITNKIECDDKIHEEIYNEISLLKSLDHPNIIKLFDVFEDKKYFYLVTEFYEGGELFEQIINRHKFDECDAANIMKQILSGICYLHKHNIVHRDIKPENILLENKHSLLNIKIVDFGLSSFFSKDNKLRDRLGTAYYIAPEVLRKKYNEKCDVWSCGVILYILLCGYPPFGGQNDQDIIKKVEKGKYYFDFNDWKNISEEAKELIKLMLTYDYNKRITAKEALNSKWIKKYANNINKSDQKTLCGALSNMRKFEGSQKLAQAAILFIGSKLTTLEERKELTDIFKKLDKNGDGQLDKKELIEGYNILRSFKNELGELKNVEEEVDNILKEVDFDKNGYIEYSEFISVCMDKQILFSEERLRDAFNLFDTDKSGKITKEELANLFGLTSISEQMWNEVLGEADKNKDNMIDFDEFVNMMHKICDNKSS
Sequence of Protein-tyrosine kinase 2-beta (Homo sapiens) (Q14289 whole entry, looked up): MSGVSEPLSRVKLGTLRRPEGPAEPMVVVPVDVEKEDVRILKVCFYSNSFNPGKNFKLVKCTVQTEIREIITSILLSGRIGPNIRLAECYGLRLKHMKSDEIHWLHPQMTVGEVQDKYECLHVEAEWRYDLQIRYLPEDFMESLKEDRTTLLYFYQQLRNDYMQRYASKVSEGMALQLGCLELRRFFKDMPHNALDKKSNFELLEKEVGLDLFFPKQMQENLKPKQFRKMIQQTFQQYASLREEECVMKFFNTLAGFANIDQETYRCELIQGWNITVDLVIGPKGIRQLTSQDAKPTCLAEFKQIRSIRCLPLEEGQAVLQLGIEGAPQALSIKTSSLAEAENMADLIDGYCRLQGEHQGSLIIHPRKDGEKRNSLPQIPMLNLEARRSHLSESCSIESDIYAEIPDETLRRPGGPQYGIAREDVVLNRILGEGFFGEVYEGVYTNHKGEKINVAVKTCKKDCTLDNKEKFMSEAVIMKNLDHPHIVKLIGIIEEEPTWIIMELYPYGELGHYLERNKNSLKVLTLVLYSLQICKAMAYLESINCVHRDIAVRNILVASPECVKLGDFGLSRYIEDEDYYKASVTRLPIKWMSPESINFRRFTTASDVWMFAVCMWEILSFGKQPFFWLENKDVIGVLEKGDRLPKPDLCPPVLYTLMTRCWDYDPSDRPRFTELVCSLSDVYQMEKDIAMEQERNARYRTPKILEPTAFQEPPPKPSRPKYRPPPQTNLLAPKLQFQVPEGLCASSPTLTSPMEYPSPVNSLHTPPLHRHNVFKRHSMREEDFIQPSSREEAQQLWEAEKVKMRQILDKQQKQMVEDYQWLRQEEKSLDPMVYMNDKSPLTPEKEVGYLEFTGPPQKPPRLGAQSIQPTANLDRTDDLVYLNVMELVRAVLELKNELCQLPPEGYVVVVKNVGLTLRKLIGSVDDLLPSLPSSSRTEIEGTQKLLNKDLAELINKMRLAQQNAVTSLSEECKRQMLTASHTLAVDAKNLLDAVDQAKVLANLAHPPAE
Sequence of MAP kinase-interacting serine/threonine-protein kinase 2 (Homo sapiens) (Q9HBH9 whole entry, looked up, the tested form may be a part): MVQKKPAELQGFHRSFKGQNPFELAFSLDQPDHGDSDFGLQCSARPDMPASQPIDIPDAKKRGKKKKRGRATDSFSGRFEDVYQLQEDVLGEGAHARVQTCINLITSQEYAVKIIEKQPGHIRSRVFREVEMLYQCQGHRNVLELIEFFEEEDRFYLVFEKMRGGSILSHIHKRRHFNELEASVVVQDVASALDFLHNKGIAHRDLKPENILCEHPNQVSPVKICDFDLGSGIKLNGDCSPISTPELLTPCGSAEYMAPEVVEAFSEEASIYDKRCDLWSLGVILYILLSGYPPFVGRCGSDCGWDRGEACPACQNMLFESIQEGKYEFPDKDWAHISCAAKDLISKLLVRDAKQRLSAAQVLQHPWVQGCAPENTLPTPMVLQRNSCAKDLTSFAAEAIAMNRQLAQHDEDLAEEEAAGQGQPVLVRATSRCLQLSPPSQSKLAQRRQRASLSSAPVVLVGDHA
Sequence of Tyrosine-protein kinase Yes (Homo sapiens) (P07947 2-543 limits assumed): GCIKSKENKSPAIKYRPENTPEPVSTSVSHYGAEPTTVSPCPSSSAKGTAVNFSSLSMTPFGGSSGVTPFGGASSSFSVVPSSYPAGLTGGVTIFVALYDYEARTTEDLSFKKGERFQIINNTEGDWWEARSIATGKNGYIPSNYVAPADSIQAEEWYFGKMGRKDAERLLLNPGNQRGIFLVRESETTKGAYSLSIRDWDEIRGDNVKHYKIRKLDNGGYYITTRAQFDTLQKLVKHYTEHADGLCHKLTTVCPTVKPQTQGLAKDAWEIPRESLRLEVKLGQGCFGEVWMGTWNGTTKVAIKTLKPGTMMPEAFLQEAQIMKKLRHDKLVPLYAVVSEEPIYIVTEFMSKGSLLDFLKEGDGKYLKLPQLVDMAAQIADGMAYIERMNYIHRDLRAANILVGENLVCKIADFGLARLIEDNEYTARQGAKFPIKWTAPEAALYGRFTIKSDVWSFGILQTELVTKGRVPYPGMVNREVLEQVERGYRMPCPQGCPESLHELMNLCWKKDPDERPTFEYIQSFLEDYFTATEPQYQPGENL
Sequence of MAP kinase-interacting serine/threonine-protein kinase 1 (Homo sapiens) (Q9BUB5 whole entry, looked up): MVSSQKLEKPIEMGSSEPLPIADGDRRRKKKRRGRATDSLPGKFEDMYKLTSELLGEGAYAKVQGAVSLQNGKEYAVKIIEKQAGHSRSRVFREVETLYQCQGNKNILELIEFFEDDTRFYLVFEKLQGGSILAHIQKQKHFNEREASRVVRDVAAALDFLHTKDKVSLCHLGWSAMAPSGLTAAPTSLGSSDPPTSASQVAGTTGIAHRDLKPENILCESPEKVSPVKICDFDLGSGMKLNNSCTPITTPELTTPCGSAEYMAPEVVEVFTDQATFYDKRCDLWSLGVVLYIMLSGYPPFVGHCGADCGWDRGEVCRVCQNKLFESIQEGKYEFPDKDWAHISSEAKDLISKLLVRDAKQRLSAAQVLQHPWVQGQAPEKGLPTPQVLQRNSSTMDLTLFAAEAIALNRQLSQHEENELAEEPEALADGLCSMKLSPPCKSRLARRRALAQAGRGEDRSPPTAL
Sequence of Cyclin-dependent kinase 2 homolog (Plasmodium falciparum (isolate K1 / Thailand)) (Q07785 whole entry): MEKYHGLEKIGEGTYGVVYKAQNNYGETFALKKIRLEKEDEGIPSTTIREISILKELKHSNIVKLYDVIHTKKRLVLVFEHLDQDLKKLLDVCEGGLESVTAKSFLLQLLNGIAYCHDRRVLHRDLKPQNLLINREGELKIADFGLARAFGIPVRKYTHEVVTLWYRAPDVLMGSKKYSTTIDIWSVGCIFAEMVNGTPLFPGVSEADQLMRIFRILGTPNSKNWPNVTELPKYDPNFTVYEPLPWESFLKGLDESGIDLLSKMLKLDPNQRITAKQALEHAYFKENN
Sequence of Serine/threonine-protein kinase 32B (Homo sapiens) (Q9NY57 whole entry): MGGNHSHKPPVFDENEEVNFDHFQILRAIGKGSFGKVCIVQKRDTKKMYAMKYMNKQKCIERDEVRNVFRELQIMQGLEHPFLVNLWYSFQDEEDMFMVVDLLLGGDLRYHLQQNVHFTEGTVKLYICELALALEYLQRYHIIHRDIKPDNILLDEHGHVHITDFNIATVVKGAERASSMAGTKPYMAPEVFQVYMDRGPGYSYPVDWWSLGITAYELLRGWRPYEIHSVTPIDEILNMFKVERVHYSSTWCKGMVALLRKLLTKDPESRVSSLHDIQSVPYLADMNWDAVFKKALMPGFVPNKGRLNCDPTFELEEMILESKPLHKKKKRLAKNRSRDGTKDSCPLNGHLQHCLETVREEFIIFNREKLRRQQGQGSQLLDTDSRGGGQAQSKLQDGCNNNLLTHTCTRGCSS

SMILES: COc1cc2nc(C)nc(N[C@H](C)c3cccc(-c4cn[nH]c4)c3)c2cc1OC
- Activity [1]: 94%
- Activity [2]: 81%
- Activity [3]: 100%
- Activity [4]: 67%
- Activity [5]: 38%
- Activity [6]: 86%
- Activity [7]: 98%
- Activity [8]: 100%
- Activity [9]: 100%
- Activity [10]: 84%
- Activity [11]: 89%
- Activity [12]: 74%
- Activity [13]: 100%
- Activity [14]: 56%

SMILES: COc1cc2ncnc(N[C@H](C)c3cccc4ccccc34)c2cc1OC
- Activity [1]: 92%
- Activity [2]: 62%
- Activity [3]: 95%
- Activity [4]: 100%
- Activity [5]: 100%
- Activity [6]: 92%
- Activity [7]: 100%
- Activity [8]: 56%
- Activity [9]: 100%
- Activity [10]: 86%
- Activity [11]: 100%
- Activity [12]: 89%
- Activity [13]: 97%
- Activity [14]: 44%
